The record followed here is ChEMBL document CHEMBL4229336, “Identification of (1S,4S)-2,5-diazabicyclo[2.2.1]heptane-dithiocarbamate-nitrostyrene hybrid as potent antiproliferative and apoptotic inducing agent against cervical cancer cell lines” (Eur J Med Chem, 2018).

What is called pIC50 is the negative decadic logarithm of the IC50, by convention in mol/L.

Data set [1] relates to HeLa. Nature of the data set: Antiproliferative activity against human HeLa cells after 24 hrs by crystal violet staining-based assay. The data set is classed as functional, cell-based.
The test system of data set [2] is Ca-Ski. As to the kind of experiment: Antiproliferative activity against human CaSki cells after 24 hrs by crystal violet staining-based assay. The data set is classed as functional, cell-based.
Data set [3] is described as follows: (§1) Antiproliferative activity against human ViBo cells after 24 hrs by crystal violet staining-based assay. The data set is classed as functional, cell-based.
The species entered for data set [4] is Homo sapiens. The description is as §1. The data set is classed as functional, cell-based.
The test system of data set [5] is HeLa. Nature of the data set: Cytotoxicity against human HeLa cells assessed as induction of necrosis at antiproliferative IC50 after 24 hrs by LDH release assay relative to control. The data set is classed as cell-based. (In general: LDH leaks from cells whose membrane has failed.)
Data set [6] concerns Ca-Ski. Nature of the data set: Cytotoxicity against human CaSki cells assessed as induction of necrosis at antiproliferative IC50 after 24 hrs by LDH release assay relative to control. The data set is classed as cell-based.
Data set [7] can be described thus: Cytotoxicity against human ViBo cells assessed as induction of necrosis at antiproliferative IC50 after 24 hrs by LDH release assay relative to control. The data set is classed as cell-based.
Data set [8] deals with HeLa. Nature of the data set: Cell cycle analysis in human HeLa cells assessed as accumulation of cells at G1 phase at antiproliferative IC50 after 24 hrs by propidium iodide staining-based flow cytometric analysis (reference value: 69.25%). The data set is classed as functional. For orientation: Flow cytometry measures light scatter and fluorescence of single cells or particles in a stream.

Data set [9] deals with HeLa. Nature of the data set: Cell cycle analysis in human HeLa cells assessed as accumulation of cells at S phase at antiproliferative IC50 after 24 hrs by propidium iodide staining-based flow cytometric analysis (reference value: 10.37%). The data set is classed as functional.
Data set [10] deals with HeLa. As to the kind of experiment: Cell cycle analysis in human HeLa cells assessed as accumulation of cells at G2/M phase at antiproliferative IC50 after 24 hrs by propidium iodide staining-based flow cytometric analysis (reference value: 17.19%). The data set is classed as functional.
The test system of data set [11] is Ca-Ski. Nature of the data set: Cell cycle analysis in human CaSki cells assessed as accumulation of cells at G1 phase at antiproliferative IC50 after 24 hrs by propidium iodide staining-based flow cytometric analysis (reference value: 69.31%). The data set is classed as functional.
The test system of data set [12] is Ca-Ski. Nature of the data set: Cell cycle analysis in human CaSki cells assessed as accumulation of cells at S phase at antiproliferative IC50 after 24 hrs by propidium iodide staining-based flow cytometric analysis (reference value: 10.12%). The data set is classed as functional.
Data set [13] has as its system Ca-Ski. As to the kind of experiment: Cell cycle analysis in human CaSki cells assessed as accumulation of cells at G2/M phase at antiproliferative IC50 after 24 hrs by propidium iodide staining-based flow cytometric analysis (reference value: 16.59%). The data set is classed as functional.
Data set [14] can be described thus: Cell cycle analysis in human ViBo cells assessed as accumulation of cells at G1 phase at antiproliferative IC50 after 24 hrs by propidium iodide staining-based flow cytometric analysis (reference value: 66.69%). The data set is classed as functional.
Data set [15] can be described thus: Cell cycle analysis in human ViBo cells assessed as accumulation of cells at S phase at antiproliferative IC50 after 24 hrs by propidium iodide staining-based flow cytometric analysis (reference value: 11.67%). The data set is classed as functional.
Data set [16] is described as follows: Cell cycle analysis in human ViBo cells assessed as accumulation of cells at G2/M phase at antiproliferative IC50 after 24 hrs by propidium iodide staining-based flow cytometric analysis (reference value: 16.20%). The data set is classed as functional.
Data set [17] has as its system HeLa. As to the kind of experiment: Induction of apoptosis in human HeLa cells assessed as chromatin condensation at antiproliferative IC50 by DAPI staining-based epifluorescence microscopic analysis. The data set is classed as functional, cell-based.
Data set [18] relates to HeLa. Nature of the data set: Induction of apoptosis in human HeLa cells assessed as formation of apoptotic bodies at antiproliferative IC50 by DAPI staining-based epifluorescence microscopic analysis. The data set is classed as functional, cell-based.
The test system of data set [19] is Ca-Ski. Nature of the data set: Induction of apoptosis in human CaSki cells assessed as chromatin condensation at antiproliferative IC50 by DAPI staining-based epifluorescence microscopic analysis. The data set is classed as functional, cell-based.
The test system of data set [20] is Ca-Ski. As to the kind of experiment: Induction of apoptosis in human CaSki cells assessed as formation of apoptotic bodies at antiproliferative IC50 by DAPI staining-based epifluorescence microscopic analysis. The data set is classed as functional, cell-based.
The species entered for data set [21] is Homo sapiens. Nature of the data set: Induction of apoptosis in human ViBo cells assessed as chromatin condensation at antiproliferative IC50 by DAPI staining-based epifluorescence microscopic analysis. The data set is classed as functional, cell-based.
The species entered for data set [22] is Homo sapiens. As to the kind of experiment: Induction of apoptosis in human ViBo cells assessed as formation of apoptotic bodies at antiproliferative IC50 by DAPI staining-based epifluorescence microscopic analysis. The data set is classed as functional, cell-based.
Data set [23] concerns HeLa. As to the kind of experiment: Induction of apoptosis in human HeLa cells assessed as caspase3 activation at antiproliferative IC50 after 24 hrs by FITC/DAPI staining-based fluorescence microscopic analysis. The data set is classed as functional, cell-based.
Data set [24] relates to Ca-Ski. As to the kind of experiment: Induction of apoptosis in human CaSki cells assessed as caspase3 activation at antiproliferative IC50 after 24 hrs by FITC/DAPI staining-based fluorescence microscopic analysis. The data set is classed as functional, cell-based.
Data set [25] is filed under the species Homo sapiens. Nature of the data set: Induction of apoptosis in human ViBo cells assessed as caspase3 activation at antiproliferative IC50 after 24 hrs by FITC/DAPI staining-based fluorescence microscopic analysis. The data set is classed as functional, cell-based.
In data set [26] the test system is HeLa. As to the kind of experiment: Induction of apoptosis in human HeLa cells assessed as caspase3 activity at antiproliferative IC50 after 24 hrs by FITC staining-based FACS analysis (reference value: 3%). The data set is classed as functional.
Data set [27] relates to Ca-Ski. As to the kind of experiment: Induction of apoptosis in human CaSki cells assessed as caspase3 activity at antiproliferative IC50 after 24 hrs by FITC staining-based FACS analysis (reference value: 5%). The data set is classed as functional.
A short description of data set [28]: Induction of apoptosis in human ViBo cells assessed as caspase3 activity at antiproliferative IC50 after 24 hrs by FITC staining-based FACS analysis (reference value: 5%). The data set is classed as functional.
Data set [29] has as its system Lymphocyte. As to the kind of experiment: Induction of cell proliferation of enriched human lymphocytes assessed as cell proliferation level at 0.73 uM after 72 hrs by CFSE staining-based flow cytometric analysis (reference value: 73.36%).
Data set [30] relates to Lymphocyte. As to the kind of experiment: Induction of cell proliferation of enriched human lymphocytes assessed as cell proliferation level at 0.99 uM after 72 hrs by CFSE staining-based flow cytometric analysis (reference value: 73.36%).
Data set [31] deals with Lymphocyte. As to the kind of experiment: Induction of cell proliferation of enriched human lymphocytes assessed as cell proliferation level at 2.36 uM after 72 hrs by CFSE staining-based flow cytometric analysis (reference value: 73.36%).
In data set [32] the test system is Lymphocyte. As to the kind of experiment: Cytotoxicity in enriched human lymphocytes assessed as induction of necrosis by measuring LDH release at 0.73 uM after 72 hrs by LDH release assay. The data set is classed as cell-based.
Data set [33] concerns Lymphocyte. Nature of the data set: Cytotoxicity in enriched human lymphocytes assessed as induction of necrosis by measuring LDH release at 0.99 uM after 72 hrs by LDH release assay. The data set is classed as cell-based.
The test system of data set [34] is Lymphocyte. Nature of the data set: Cytotoxicity in enriched human lymphocytes assessed as induction of necrosis by measuring LDH release at 2.36 uM after 72 hrs by LDH release assay. The data set is classed as cell-based.

pIC50: −log10 of the molar value. Activity calls are given as the source filed them. No cut-off for these calls is given here.

Regarding `CC(C)(C)OC(=O)N1C[C@@H]2C[C@H]1CN2C(=S)SC(C[N+](=O)[O-])c1ccc(F)cc1` (stereo partly drawn), the Activity entry was “Dose-dependent effect” in data set [1]; “Dose-dependent effect” in [2]; “Dose-dependent effect” in data set [4]; 2% in data set [5]; 5% in data set [6]; 8% in data set [7]. In addition, the pIC50 in data set [1] is 5.10; in data set [2], 5.17; in data set [3] it was 5.18.

With `CC(=O)O[C@H]1C(=O)[C@@]2(C)[C@H]([C@H](OC(=O)c3ccccc3)[C@]3(O)C[C@H](OC(=O)[C@H](O)[C@@H](NC(=O)c4ccccc4)c4ccccc4)C(C)=C1C3(C)C)[C@]1(OC(C)=O)CO[C@@H]1C[C@@H]2O` [PACLITAXEL], the pIC50 in [2] is 5.54; in [3], 5.80.

For `CC(C)(C)OC(=O)N1C[C@@H]2C[C@H]1CN2C(=S)SC(C[N+](=O)[O-])c1ccc(Cl)cc1` (stereo partly drawn), the Activity result was “Dose-dependent effect” in data set [1]; “Dose-dependent effect” in data set [2]; “Dose-dependent effect” in [4]; 4% in data set [5]; 15% in data set [6]; 12% in data set [7]. Also, the results for the pIC50 in data set [1], in data set [2] and in data set [3] were 5.25, 5.14 and 5.62, respectively.

In the case of `CC(C)(C)OC(=O)N1CCN(C(=S)SC(C[N+](=O)[O-])c2ccccc2)CC1` (stereo not drawn), the values for the pIC50 in [1], in [2] and in [3] were 4.50, 4.53 and 4.72, respectively. Besides, the Activity in data set [5], in data set [6] and in [7] was 0% each time.

As for `CC(C)(C)OC(=O)N1C[C@@H]2C[C@H]1CN2C(=S)SC(C[N+](=O)[O-])c1ccccc1` (stereo partly drawn), the Activity result is “Dose-dependent effect” in data set [1]; “Dose-dependent effect” in data set [2]; “Dose-dependent effect” in [4]; 3% in data set [5]; 2% in data set [6]; 0% in [7]. In addition, the Activity in [8] amounted to 70.26%; in [9], 10.68%; in data set [10] it was 16.01%; in data set [11], 72.29%; in data set [12], 10.49%; in data set [13], 14.35%. In addition, the Activity in [14] turned out to be 64.38%; in data set [15], 10.05%; in [16], 20.48%; in [26], 36%; in [27] it was 42%; in [28] it was 35%. Moreover, the Activity in data set [29] is on record as 64.02%; in data set [30], 62.38%; in data set [31], 7.44%; in data set [32], “Non-Toxic”; in data set [33] it was “Non-Toxic”; in [34], “Non-Toxic”. For the same molecule, the pIC50 in [1] is 6.00; in data set [2] it was 5.63; in data set [3], 6.14. Besides, the outcome in data set [17], in [18], in data set [19], in data set [20], in [21] and in data set [22] was Active. The result in data set [23], in data set [24] and in data set [25] was Active.

`Cc1ccc(C(C[N+](=O)[O-])SC(=S)N2C[C@@H]3C[C@H]2CN3C(=O)OC(C)(C)C)cc1` (stereo partly drawn): the Activity result is “Dose-dependent effect” in [1]; “Dose-dependent effect” in data set [2]; “Dose-dependent effect” in data set [4]; 0% in data set [5]; 2% in data set [6]; 5% in data set [7]. The pIC50 in [1] was 5.26; in [2], 5.23; in [3] it was 5.50.

For `CC[C@@]1(O)C(=O)OCc2c1cc1n(c2=O)Cc2cc3ccccc3nc2-1` [CAMPTOTHECIN], the pIC50 is 6.03 in data set [1], 5.74 in data set [2] and 5.72 in data set [3]. Moreover, the Activity in [5] turned out to be 3%; in data set [6], 2%; in data set [7] it was 0%; in data set [26] it was 29%; in data set [27], 62%; in [28], 48%.

On to `COc1ccc(C(C[N+](=O)[O-])SC(=S)N2C[C@@H]3C[C@H]2CN3C(=O)OC(C)(C)C)cc1` (stereo partly drawn), for which the Activity entry in data set [1] was “Dose-dependent effect”; in [2] it was “Dose-dependent effect”; in data set [4], “Dose-dependent effect”; in data set [5] it was 0%; in data set [6], 0%; in [7], 5%. Further, the pIC50 in data set [1] was 5.28; in [2], 5.21; in data set [3] it was 5.58.

In the case of `CC(C)(C)OC(=O)N1C[C@@H]2C[C@H]1CN2C(=S)SC(C[N+](=O)[O-])c1ccc(C(F)(F)F)cc1` (stereo partly drawn), the Activity result in data set [1] was “Dose-dependent effect”; in data set [2], “Dose-dependent effect”; in data set [4] it was “Dose-dependent effect”; in data set [5], 5%; in data set [6], 20%; in [7], 0%. The results for the pIC50 in [1], in [2] and in data set [3] were 5.21, 5.21 and 5.14, respectively.
